Key:
Format in all cases: cell-based
EphA2 [1] = molecular target: T1, EphA2 (Homo sapiens, UniProt P29317, L223R/L254R/V255R); assay: Quantitative FRET of EphA2 oligomerization in transiently transfected HEK293 cells; details: swollen HEK293 cells
T1 construct: expressed in transfected cells; host or cells: HEK293 (HEK293T), transient transfection
Text: (§1) FIG. 4A-4E illustrates an example where dimers with different configurations induce EphA2 oligomerization and patching on the cell surface. (FIG. 4A-4D) Oligomerization curves comparing EphA2 WT and the G131Y and L223R/L254R/[…] interface mutants transiently expressed in HEK293 cells and treated with saturating concentrations of C-terminally linked dimer (2) or N-terminally linked dimer (5). The curves were obtained by fitting quantitative FRET data to monomer-oligomer models. […] Curves for higher order oligomerization are steeper than dimerization curves. (FIG. 4E) Two-photon integrated fluorescence images of HEK293 cells expressing EphA2-EYFP and EphA2-mTURQ and under hypo-osmotic conditions. The plasma membrane regions in the rectangular yellow outlines are enlarged in the insets at the bottom of each panel. The dimeric peptides induce patching of EphA2 WT on the plasma membrane and dimer (5) also induces patching of the EphA2 L223R/L254R/V255R mutant, while in the other cases the EphA2 interface mutations disrupt patching. The scale bar represents 10 μm for the main panels and 4 μm for the insets. # indicates the presence of EphA2 patches in the plasma membrane.
(§2) FIG. 12 illustrates an example of FRET efficiencies versus total receptor concentrations. […]
(§3) To examine the effects of dimeric peptide ligands on EphA2 oligomerization (including dimerization and higher order clustering), quantitative FRET experiments were performed in live cells. […] FRET is then measured in hundreds of individual cells with different EphA2 expression levels (FIG. 12), and the data are combined to yield average oligomeric fractions at different EphA2 concentrations (FIG. 4A-4D). […]
(§4) To obtain the data points for oligomerization curves (FIG. 12), the concentration of EphA2 in each small region of plasma membrane in which FRET efficiency was measured. Conversion of fluorescence intensity into accurate 2-dimensional EphA2 concentration requires a reversible hypo-osmotic treatment to swell the cells and smooth the wrinkled topology of their plasma membrane (FIG. 4E). […]

EphA2 [2] = molecular target: T2, EphA2 (Homo sapiens, UniProt P29317, G131Y); assay: as above
T2 construct: expressed in transfected cells; host or cells: HEK293 (HEK293T), transient transfection
T2 sequence (P29317 24-976 G131Y): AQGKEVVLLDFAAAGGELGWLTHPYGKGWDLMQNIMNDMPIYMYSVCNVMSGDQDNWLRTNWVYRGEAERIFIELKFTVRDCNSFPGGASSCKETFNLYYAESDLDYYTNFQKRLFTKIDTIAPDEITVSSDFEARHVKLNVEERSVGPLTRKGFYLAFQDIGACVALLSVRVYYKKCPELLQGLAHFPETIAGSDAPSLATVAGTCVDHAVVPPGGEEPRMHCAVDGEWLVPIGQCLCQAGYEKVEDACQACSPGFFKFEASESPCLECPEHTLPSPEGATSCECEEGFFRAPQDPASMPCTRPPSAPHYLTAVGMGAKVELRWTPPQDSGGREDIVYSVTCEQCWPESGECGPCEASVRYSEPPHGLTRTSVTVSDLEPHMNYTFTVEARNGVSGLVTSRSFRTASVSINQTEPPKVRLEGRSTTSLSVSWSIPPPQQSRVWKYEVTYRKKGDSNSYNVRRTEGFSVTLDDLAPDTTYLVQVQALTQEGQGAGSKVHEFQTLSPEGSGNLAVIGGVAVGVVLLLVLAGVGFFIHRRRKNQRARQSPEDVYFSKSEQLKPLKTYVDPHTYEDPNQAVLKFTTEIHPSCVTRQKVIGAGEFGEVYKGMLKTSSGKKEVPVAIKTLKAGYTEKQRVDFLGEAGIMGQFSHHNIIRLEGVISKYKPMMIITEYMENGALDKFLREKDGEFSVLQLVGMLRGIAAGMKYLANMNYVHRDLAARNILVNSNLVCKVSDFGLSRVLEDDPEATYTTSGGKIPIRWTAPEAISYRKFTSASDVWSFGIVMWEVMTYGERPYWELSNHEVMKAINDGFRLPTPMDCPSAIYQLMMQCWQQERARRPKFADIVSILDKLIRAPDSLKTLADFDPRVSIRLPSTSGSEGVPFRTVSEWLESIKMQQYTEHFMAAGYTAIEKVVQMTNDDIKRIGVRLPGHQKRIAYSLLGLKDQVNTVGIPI
Text: as §1, §2, §3, §4

EphA2 [3] = molecular target: EphA2 (Homo sapiens, UniProt P29317); assay: EphA2 autophosphorylation on tyrosine 588 in PC3 cells (immunoblot dose-response); set-up: EphA2 is the prevalent endogenously expressed EphA receptor in these cells; endogenous in cells; host or cells: PC3 prostate cancer cells
Chain of EphA2 (Homo sapiens, UniProt P29317) (P29317 24-976): as the sequence (P29317 24-976 G131Y) above, with Y108G counted along it
Method: (FIG. 2A) Dose-response curves for EphA2 autophosphorylation on tyrosine 588 (pY588; purple) and for downstream inhibition of AKT phosphorylation (magenta). PC3 cells were treated for 15 min with different concentrations of the indicated peptides. […] The graphs show quantifications from multiple blots (averages ±SE; the number of experiments used to generate each curve is shown in Table 3). […] (FIG. 2B) Examples of immunoblots of lysates from PC3 cells treated with the indicated concentrations of representative ligands. […] A white vertical line indicates removal of irrelevant lanes. […] The bars show averages ±SE, and the individual measurements are shown as black dots. […] Plots of Etop versus EC50 for pY588 in FIG. 2D and for pAKT inh in FIG. 2E. Averages ±SE are shown for the peptides and ephrinA1.
To examine the agonistic properties of the different dimeric peptide ligands, EphA2 autophosphorylation on tyrosine 588 (Y588) was measured, which is indicative of receptor activation and mediates binding of SH2 domain-containing proteins that link EphA2 to various downstream signaling pathways (FIG. 7). For these experiments, PC3 prostate cancer cells were stimulated with the dimeric peptides because EphA2 is the prevalent endogenously expressed EphA receptor in these cells, allowing comparisons with ephrins.

T1 sequence (P29317 24-976 L223R/L254R/V255R): as the sequence (P29317 24-976 G131Y) above, with Y108G, L200R, L231R, V232R counted along it

Structure (SMILES): CC(C)C[C@H](NC(=O)[C@H](Cc1c[nH]c2ccccc12)NC(=O)[C@H](C)NC(=O)CNC(=O)[C@@H](N)CSSC[C@H](N)C(=O)NCC(=O)N[C@@H](C)C(=O)N[C@@H](Cc1c[nH]c2ccccc12)C(=O)N[C@@H](CC(C)C)C(=O)N[C@@H](C)C(=O)N[C@@H](Cc1ccc(O)cc1)C(=O)N1CCC[C@H]1C(=O)N[C@@H](CC(=O)O)C(=O)N[C@@H](CO)C(=O)N[C@H](C(=O)N1CCC[C@H]1C(=O)N[C@@H](Cc1ccc(O)cc1)C(=O)N[C@@H](CCCNC(=N)N)C(=O)N1CCC[C@H]1C(=O)N[C@@H](CCCCN)C(=O)O)C(C)C)C(=O)N[C@@H](C)C(=O)N[C@@H](Cc1ccc(O)cc1)C(=O)N1CCC[C@H]1C(=O)N[C@@H](CC(=O)O)C(=O)N[C@@H](CO)C(=O)N[C@H](C(=O)N1CCC[C@H]1C(=O)N[C@@H](Cc1ccc(O)cc1)C(=O)N[C@@H](CCCNC(=N)N)C(=O)N1CCC[C@H]1C(=O)N[C@@H](CCCCN)C(=O)O)C(C)C [compound 5, CGA-WLA-YRPK dimer (N-ter)]
- EphA2 patches on the plasma membrane, EphA2 L223R/L254R/V255R mutant (EphA2 [1]): causes patches
- best-fit FRET oligomerization model, EphA2 G131Y mutant (EphA2 [2]; saturating peptide, HEK293 cells): dimer model
- EphA2 patches on the plasma membrane, EphA2 G131Y mutant (EphA2 [2]; swollen HEK293 cells): not
- Etop pY588 (EphA2 [3]; Table 3, 15 min, saturating ligand, pY588/EphA2 normalized to ephrinA1-Fc): 0.87 ± 0.04
- Emax PY588 (EphA2 [3]; ephrinA1Fc = 1.00): 0.78 ± 0.025
- EC50 (EphA2 [3]; read-out: EC50 PY588): 0.53 ± 0.07 nM
